One block for each compound: values may come before it. Numbered stars: 1 amine (or outer) side, 2 acyl side, 3 side chain; on linkers, the order of the positions; unused ones are H or OH. Square brackets hold non-standard residues; d marks the D form. Peptide text beside a SMILES is read from it. γGlu = O=C(O)[C@H](CCC(=O)[*:2])N[*:1]; Tle = CC(C)(C)[C@H](N)C(=O)O
Columns and labels:
human CaSR = target: T1, human CaSR (Homo sapiens, UniProt P41180); assay: Calcium receptor (CaSR) activation activity: calcium imaging in HEK 293 cells expressing human CaSR; type: cell-based; conditions: concentration giving 50% of the maximal activity; single values n = 1, others n = 2 or 3
T1 construct: expressed in transfected cells; host or cells: HEK 293 cells, transient transfection of a CMV-promoter expression vector
T1 sequence (P41180 20-1078): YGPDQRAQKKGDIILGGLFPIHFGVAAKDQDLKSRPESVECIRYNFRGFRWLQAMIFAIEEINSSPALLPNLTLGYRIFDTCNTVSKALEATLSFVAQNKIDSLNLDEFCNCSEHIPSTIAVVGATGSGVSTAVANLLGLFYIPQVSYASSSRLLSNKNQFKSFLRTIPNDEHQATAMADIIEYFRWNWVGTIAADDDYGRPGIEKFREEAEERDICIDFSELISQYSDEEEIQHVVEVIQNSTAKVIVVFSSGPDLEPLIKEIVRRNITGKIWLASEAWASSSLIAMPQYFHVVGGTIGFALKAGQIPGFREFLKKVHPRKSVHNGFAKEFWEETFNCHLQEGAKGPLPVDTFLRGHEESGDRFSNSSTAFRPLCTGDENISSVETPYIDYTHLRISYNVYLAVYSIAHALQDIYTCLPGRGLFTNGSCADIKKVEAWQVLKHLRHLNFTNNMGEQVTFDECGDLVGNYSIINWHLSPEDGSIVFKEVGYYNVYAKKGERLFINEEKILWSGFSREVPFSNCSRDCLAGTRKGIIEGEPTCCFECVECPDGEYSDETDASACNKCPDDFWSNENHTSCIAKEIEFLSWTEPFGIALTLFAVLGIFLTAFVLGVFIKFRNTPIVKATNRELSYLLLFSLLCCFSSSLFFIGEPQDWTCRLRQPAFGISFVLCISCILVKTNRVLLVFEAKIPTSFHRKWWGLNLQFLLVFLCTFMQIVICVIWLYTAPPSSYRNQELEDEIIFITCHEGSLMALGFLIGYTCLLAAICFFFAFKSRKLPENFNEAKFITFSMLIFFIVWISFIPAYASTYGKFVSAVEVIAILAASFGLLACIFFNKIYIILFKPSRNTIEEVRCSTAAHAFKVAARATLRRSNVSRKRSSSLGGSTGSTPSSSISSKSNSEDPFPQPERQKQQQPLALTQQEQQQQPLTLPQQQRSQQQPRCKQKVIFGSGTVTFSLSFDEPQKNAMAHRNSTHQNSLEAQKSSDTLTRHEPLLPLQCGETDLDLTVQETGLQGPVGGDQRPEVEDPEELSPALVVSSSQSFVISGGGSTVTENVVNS
Experimental: Calcium receptor (CaSR) activation activity of peptides obtained in Examples 2, 3, and 5-12 were measured as follows. A cDNA of human CaSR obtained in Example 1 of WO2007/055393A1 was inserted into an expression vector for an animal cell having a CMV promoter, and the cDNA in the vector was introduced into HEK 293 cells, which had multiplied to 70% of the maximal cell density, using FuGINE6 (Roche Ltd.). After culturing the cells for 4 to 48 hours, 0.6-1.0×10^5 of cells/well were disseminated into a 96-well plate, subsequently, the cells were cultured for one day, and then stained using Calcium 3 Assay Kit. The presence or absence of a calcium receptor activation activity of each peptide was confirmed by a calcium imaging method using FLEXSTATION (Molecular Devices Inc., instruction manual). Furthermore, the concentration of each peptide giving 50% of the maximal activity (EC50) was calculated using a dose characteristic curve.

[1] = Quantitative sensory evaluation test: kokumi-imparting activity of peptides combined with known calcium receptor activators or additives; type: in vivo, human; conditions: alone; for Intensity of kokumi: Aftertaste / Intensity of kokumi: First and middle taste: n=12, 0 control, 3 intense, 6 extremely intense
Experimental: The intensity of the kokumi-imparting activity of each peptide having confirmed calcium receptor activation activity and a known calcium receptor activator used in combination was measured by a quantitative sensory evaluation test, performed as follows: Samples of γ-Glu-Cys-Gly (glutathione) or γ-Glu-Val-Gly (0.0001 to 1 g/dl), or these samples combined with a calcium receptor activator such as calcium lactate, protamine or polylysine, or GABA (addition concentration: 0.0001 to 1 g/dl) were added to distilled water containing sodium glutamate (0.05 g/dl), inosine monophosphate (0.05 g/dl), and sodium chloride (0.5 g/dl), and the intensity of the kokumi-imparting activity was measured. Sample solutions that became acidic after dissolution of the samples were adjusted to pH 6.8 to 7.2 with NaOH before use. Sensory evaluation scores were used to evaluate as follows: 0 points for the control sample, 3 points for intense activity (as intensity of 0.05 g/dl γ-Glu-Cys-Gly and 0.005 g/dl γ-Glu-Val-Gly), and 6 points for extremely intense activity (as twice intensity of 0.05 g/dl γ-Glu-Cys-Gly and 0.005 g/dl γ-Glu-Val-Gly), and the test was performed with n=12.

EC50 (human CaSR): 50 nM
Compound: CC(C)(C)[C@H](NC(=O)CC[C@H](N)C(=O)O)C(=O)OCC(=O)O [γ-Glu-t-Leu-GlyA]

EC50 (human CaSR): 159 to 233 nM
Compound: CC(C)(S)[C@H](NC(=O)CC[C@H](N)C(=O)O)C(=O)NCC(=O)O [γ-Glu-Pen-Gly]

EC50 (human CaSR): 65 to 79 nM
Compound: CC[C@H](NC(=O)CC[C@H](N)C(=O)O)C(=O)OCC(=O)O [γ-Glu-Abu-GlyA]

EC50 (human CaSR): 140 nM
Compound: CC(C)[C@H](NC(=O)CC[C@H](N)C(=O)O)C(=O)OCC(=O)O [γ-Glu-Val-GlyA]

Intensity of kokumi: Aftertaste ([1]; 0.005 g/dl): 1.0 points
Intensity of kokumi: First and middle taste ([1]; 0.005 g/dl): 1.5 points
Compound: Protamine

EC50 (human CaSR): 57 nM
Compound: CC(C)[C@H](NC(=O)CC[C@H](N)C(=O)O)C(=O)O[C@@H](C)C(=O)O [γ-Glu-Val-LacA]

EC50 (human CaSR): 500 to 1500 nM
Compound: N[C@@H](CCC(=O)NC1(C(=O)NCC(=O)O)CCCC1)C(=O)O [γ-Glu-Cle-Gly]

The next lines start with the compound.

Compound: Polylysine
Evaluation remarks ([1]; 0.001 g/dl): Thickness
Intensity of kokumi: Aftertaste ([1]; 0.001 g/dl): 0.5 points
Intensity of kokumi: First and middle taste ([1]; 0.001 g/dl): 0.5 points

Compound: CC(C)(C)[C@H](NC(=O)CC[C@H](N)C(=O)O)C(=O)NCC(=O)O [γ-Glu-t-Leu-Gly] (γGlu-[Tle]-Gly-OH)
EC50 (human CaSR): 43 to 77 nM

Compound: CC(C)(NC(=O)CC[C@H](N)C(=O)O)C(=O)NCC(=O)O [γ-Glu-Aib-Gly]
EC50 (human CaSR): 349 to 1170 nM

Compound: CC[C@H](NC(=O)CC[C@H](N)C(=O)O)C(=O)O[C@@H](C)C(=O)O [γ-Glu-Abu-LacA]
EC50 (human CaSR): 102 nM

Compound: CC(O)C(=O)[O-].CC(O)C(=O)[O-].[Ca+2] (stereo not drawn) [Calcium lactate]
Evaluation remarks ([1]; 0.25 g/dl): Thickness
Intensity of kokumi: Aftertaste ([1]; 0.25 g/dl): 0.5 points
Intensity of kokumi: First and middle taste ([1]; 0.25 g/dl): 0.5 points

Compound: NCCCC(=O)O [GABA]
Evaluation remarks ([1]; 0.025 g/dl): Thickness
Intensity of kokumi: Aftertaste ([1]; 0.025 g/dl): 0.5 points
Intensity of kokumi: First and middle taste ([1]; 0.025 g/dl): 0.5 points

Compound: C[C@H](OC(=O)[C@@H](NC(=O)CC[C@H](N)C(=O)O)C(C)(C)C)C(=O)O [γ-Glu-t-Leu-LacA]
EC50 (human CaSR): 38 nM

— patent US8420144B2, “Kokumi-imparting agent, method of using, and compositions containing same” (Ajinomoto Co., Inc., priority 2005, dated 2013)
